Results taken from patent publication US8329218B2, “Unusually stable glasses and methods for forming same” (Wisconsin Alumni Research Foundation, priority 2007, dated 2012).

How the values were obtained:
[1] = Differential scanning calorimetry of glass stability (onset temperature, fictive temperature, θK); type: physicochemical; conditions: for Tg (onset temperature) of ordinary glass: ordinary glass cooled from the liquid; for enthalpies and Tfic values of vapor-deposited samples relative to ordinary glass: samples prepared by vapor deposition
Description: Differential scanning calorimetry (DSC) was used to examine the kinetics and thermodynamics of vapor-deposited samples created by heating crystalline TNB or IMC in a vacuum. To move a sample from the glass to the supercooled liquid, energy must be supplied to the sample. In DSC, this energy is supplied as heat to the system as the temperature is ramped from a temperature below the glass transition into the supercooled liquid regime. For an ordinary glass that is cooled from the melt the amount of energy needed to do this is observed by a change in heat capacity at Tg. […] An endothermic heat characteristic will be observed in these cases, often referred to as an enthalpy overshoot, where the size and temperature of the overshoot indicate the amount of stability.
This scan was continued to above the melting point, after which the sample was cooled at 40 K/min into the glass and then scanned again to yield the leftmost curve. This latter-curve represents the behavior of an ordinary glass of TNB, with Tg=347 K, as defined by the onset temperature; it is consistent with previously reported results for TNB (C. M. Whitaker, R. J. McMahon J. Phys. Chem. 100, 1081 (1996); J. H. Magill, J. Chem. Phys. 47, 2802 (1967)). The DSC instrument was calibrated using an indium standard.
The fictive-temperature (Tfic) of the glasses, as defined below, was calculated in order to quantify the thermodynamic stability of the vapor-deposited materials. Lower Tfic values indicate a lower position on the energy landscape. The enthalpy for TNB and IMC samples, obtained by integrating Cp, is plotted in FIG. 1B. […] The supercooled liquid enthalpy curve was calculated by determining the temperature dependence of the enthalpy between the glass transition and the melting point and extrapolating this dependence to lower temperatures. […] Based upon aging experiments on TNB (D. J. Plazek, J. H. Magill, J. Chem. Phys. 45, 3038 (1966)), it is estimated that it would require at least 40 years of annealing an ordinary glass to match Tfic for the vapor-deposited sample shown in FIG. 1.
The Kauzmann temperature and θK were also calculated. For TNB, Magill estimated TK=270 K (J. H. Magill, J. Chem. Phys. 47, 2802 (1967)). […] In comparison, annealing the ordinary glass at 296 K (θK=0.09) or 328 K (θK=0.22) is relatively ineffective. […] Of annealing achieved θK≦0.17 (A. J. Kovacs, Fortschr Hochpolym-Forsch. 3, 394 (1963)).

[2] = Water uptake: weight change as a function of relative humidity (sorption apparatus); type: physicochemical
Method: The stable glass was prepared by vapor depositing IMC onto an aluminum substrate using the method described in Example 1, above. The substrate was held at a temperature of 265 K and a deposition rate of 2 Å/s was used. For comparison, two “ordinary” glass samples were also prepared. These were formed by vapor-deposition at 315 K. In addition, water uptake was measured for a crystalline IMC glass. Weight change as a function of relative humidity was measured for the ordinary glasses, stable glass, and crystalline IMC. The multiple curves for a given sample are from cycles where the relative humidity (RH) was stepped up and back down. A TA instruments Q5000SA sorption apparatus was used to induce relative humidity step changes and measure the steady-state weight change response. For the crystalline IMC (lowest curve), at 50% RH less than 0.1% weight change was observed. By contrast: the ordinary glass (uppermost curves) absorbed nearly one weight percent at a RH of 50%. The measured percent weight change observed here matches previous data obtained for ordinary IMC glasses and crystalline IMC by Zografi and coworkers. (See Andronis et al., J. Pharm. Sci. 86, 346 (1997).)

[3] = Quasi-isothermal temperature modulated DSC: transformation of glass to supercooled liquid; type: physicochemical; conditions: ordinary glass; Tanneal 319 K
Method: The stable glass was prepared by vapor depositing IMC onto an aluminum substrate using the method described in Example 1, above. The substrate was held at a temperature of 265 K and a deposition rate of 2 Å/s was used. For comparison, an “ordinary” glass sample was also prepared by melting the vapor-deposited IMC glass and cooling the resulting liquid at a rate of 40 K/min.
The kinetic stability of the stable IMC glass was explored in quasi-isothermal temperature modulated differential scanning calorimetry (qi-TMDSC) experiments. In these experiments a TA instruments Q2000 DSC was used. After vapor deposition, the samples were placed in the DSC at room temperature. A temperature jump from room temperature to the annealing-temperature was carried out. At room temperature the sample was a glass, and the annealing temperature was chosen such that it was higher than the ordinary glass Tg (315 K). The temperature jump defines t=0. In addition to the instantaneous temperature jump a small sinusoidal temperature fluctuation was imposed (amplitude: 0.5: K, period: 60 seconds) which allows; one to measure the reversing heat capacity as a function of time.

[4] = Density of vapor-deposited films by x-ray reflectivity; type: physicochemical; conditions: deposition at 296 K
Description: The present vapor-deposition methods can also create unusually dense glasses. The ratio of the density of vapor-deposited TNB (ρVD) to that of the ordinary glass (ρo, prepared by cooling from the liquid), increases as the deposition temperature is lowered toward 0.85 Tg (FIG. 2). Also shown as the solid line is a prediction of the density if vapor-deposition produced an equilibrium supercooled liquid at the deposition temperature (D. J. Plazek, J. H. Magill, J. Chem. Phys. 45, 3038 (1966)). For this range of deposition temperatures, the samples nearly achieve this upper bound for density. If a fictive temperature is defined based upon density, deposition at 296 K produces Tfic≈300 K, slightly lower than the fictive temperature based upon the enthalpy. Fictive temperatures based on densities can be determined from FIG. 2, by horizontally shifting the points to overlap with the line shown.
The data in FIG. 2 were determined from x-ray reflectivity measurements made on as-prepared films of TNB and on the same films after thermal equilibration above Tg. All x-ray data was taken at room temperature. […] Since the area of the film was the same before and after annealing, the ratio of the densities equals the inverse of the ratio of the thicknesses, and this is reported in FIG. 2. […]

[5] = at 342 K; cited from earlier work
[6] = estimated by Magill; cited from earlier work
[7] = Neutron reflectivity of interdiffusion in h-TNB/d-TNB multilayer films during annealing; type: physicochemical
Method: Neutron reflectivity was used to characterize diffusion in ordinary and stable glasses of TNB. The high spatial resolution and large contrast in the scattering length of neutrons for hydrogen and deuterium nuclei make this an excellent technique for quantifying molecular motion. The neutron reflectivity experiments were conducted at the NIST Center for Neutron Research at the National Institute of Standards and Technology (NCNR-NIST). The NG7 horizontal reflectometer utilized a 4.76 Å collimated neutron beam, with a wavelength divergence of 0.18 Å. The angular divergence of the beam was varied through the reflectivity scan and this provided a relative q resolution Δq/q=0.04 (q=4π sin θ/λ, where θ is the incident and final angle with respect to the surface of the film, and where λ is the neutron wavelength).
For the neutron reflectivity measurements, multilayer thin films of protio TNB (h-TNB) and deuterio TNB (d-TNB) were deposited onto 76-mm-diameter, 3-mm-thick silicon-wafers (Wafer World and Virginia Semiconductor), as described in S. F. Swallen, et al., J. Chem. Phys. 124, 184501 (2006). The silicon was used as received, retaining the native oxide coating. The deposition rate was typically 0.1 nm/s. Prior to deposition, the substrate was spin-coated with a 10-nm polystyrene layer (Polymer Source, ˜10^6 g/mol), which acted to minimize crystallization and dewetting of the TNB film during annealing. The polystyrene was made from a mixture of protio and perdeuterio chains, in order, to approximately match the neutron scattering length density of the first h-TNB layer. Following deposition, the samples were slowly cooled and held at room temperature for 1 to 5 days before neutron reflectivity measurements were obtained. The specular reflectivity R was measured as a function of beam angle relative to the sample surface. This value, multiplied by q^4 for clarity, is plotted as a function of the wavevector q. Reflectivity curves for samples vapor-deposited at different temperatures display diffraction peaks; as expected for the symmetric multi-layer samples, only odd diffraction orders are, present. For samples deposited at low temperature, diffraction can be observed up to the 13th order, indicating very sharp h-TNB/d-TNB interfaces. (S. F. Swallen et al; Science 315, 353 (2.007)). […]
FIG. 4A illustrates the behavior of an ordinary glass annealed near Tg; as shown elsewhere (S. F. Swallen et al., J. Chem. Phys. 124, 184501 (2006)), interdiffusion in this sample is characteristic of the equilibrium liquid. […] The magnitude of this stability can be quantified in terms of the equilibrium structural relaxation time τα, known to be 250 s at 342 K (R. Richert, K. Duvvuri, L.-T. Duong, J. Chem. Phys. 118, 1828 (2003)). […]

[8] = DSC of glasses made in a sublimation apparatus; conditions: vapor deposition by sublimation, 8 mTorr
Description: A glass container that could be evacuated was used as a sublimation chamber. The lower part of the container held the material to be sublimed (“source material”). A condenser cooled by a circulating coolant was positioned above the source material. At the bottom of the condenser were attached a silicon wafer or aluminum DSC pans, which serves as surfaces for vapor deposition. The source material was heated to sublime by submerging the bottom the sublimation apparatus in an oil bath. The vapor produced by sublimation was deposited on the cooled collecting surfaces. The vacuum maintained during the operation of this device was 8 mTorr. A metal plate was placed over the source material until vapor deposition was to begin, at which time it was withdrawn magnetically. The sublimation rate was controlled by varying the oil bath temperature.
Curve 1 corresponds to a glass prepared by vapor deposition onto a DSC pan held, at approximately Tg−50 K at a rate of ˜0.2 nm/s. Curve 2 corresponds to an ordinary glass, produced by cooling the liquid at a rate of 10 K/min. […] Curve 1 corresponds to a glass prepared by vapor deposition onto a DSC pan at approximately Tg−50 K at a rate of ˜0.4 nm is. […] Curve 2 corresponds to an ordinary glass produced by cooling the liquid at 10 K/min.

Structure (SMILES)	Tg (onset temperature) of ordinary glass [1] [K]	enthalpies and Tfic values of vapor-deposited samples relative to ordinary glass [1]	weight change (water uptake) ([2]; crystalline, 50% RH)	weight change (water uptake) ([2]; ordinary glass (vapor-deposited at 315 K), RH of 50%)	water uptake of stable glass relative to ordinary glass ([2]; relative humidity of 50%)	weight change (water uptake) ([2]; stable glass (vapor-deposited at 265 K, 2 Å/s), relative humidity of 50%) [weight percent]	response to temperature jump (transformation to supercooled liquid) [3]	annealing time of an ordinary glass required to match Tfic of the vapor-deposited sample ([1]; estimated from aging experiments)	onset temperature ([1]; glass vapor-deposited onto substrate at 296 K, DSC heating 10 K/min) [K]	θK ([1]; ordinary glass annealed at 296 K)	θK ([1]; ordinary glass annealed at 328 K)	θK ([1]; vapor deposition at 296 K (0.85Tg))	Tfic (fictive temperature based upon density) [4]	equilibrium structural relaxation time τα [5] [s]	Kauzmann temperature TK [6] [K]	interdiffusion of h-TNB/d-TNB during annealing ([7]; deposited at 296 K, 16 hours of annealing at 342 K)	interdiffusion of h-TNB/d-TNB during annealing ([7]; deposited at 330 K, 8 hours of annealing at 342 K)	induction time before diffusion ([7]; sample deposited at 0.85Tg, annealed at 342 K)	surface diffusion coefficient ([7]; vapor-deposited at 296 K, 0.1 nm/sec, order-of-magnitude estimate)	stability of glass made in sublimation apparatus [8]
COc1ccc2c(c1)c(CC(=O)O)c(C)n2C(=O)c1ccc(Cl)cc1 [IMC, indomethacin]	315	considerably lower	less than 0.1%	one	one sixth	0.15	nearly instantaneous													
c1ccc2cc(-c3cc(-c4cccc5ccccc45)cc(-c4cccc5ccccc45)c3)ccc2c1 [TNB, 1,3-bis-(1-naphthyl)-5-(2-naphthyl)benzene]	347	considerably lower						at least 40 years	363	0.09	0.22	0.43	≈ 300 K	250	270	no detectable interdiffusion occurred	substantial interfacial broadening had occurred	exceeds 200 τα	5×10^−16 cm^2/sec	
CCC1(c2ccccc2)C(=O)NC(=O)NC1=O [phenobarbital]																				low fictive temperatures
